Experimental data as given in US7049289B1, “Labelled glutamine and lysine analogues” (Amersham PLC, priority 1998, dated 2006).

Columns and labels:
[1] = molecular target: T1, fibrin (in vitro human plasma clot) (Homo sapiens, UniProt P02671+P02675+P02679); assay: Incorporation into human plasma clots in vitro; format: biochemical; conditions: for % specific uptake: % retained (with thrombin) - % retained (no thrombin); for % retained (no thrombin): control without thrombin and calcium chloride (non-specific binding); for % retained (with thrombin): human plasma clot, 60 minutes, ca. 20° C.
T1 construct: about 400 μl of human plasma containing the radiolabelled substrate; from tissue; host or cells: human plasma, clotted in vitro with added thrombin and calcium chloride
T1 sequence (P02671 20-644 isoform P02671-2 limits assumed): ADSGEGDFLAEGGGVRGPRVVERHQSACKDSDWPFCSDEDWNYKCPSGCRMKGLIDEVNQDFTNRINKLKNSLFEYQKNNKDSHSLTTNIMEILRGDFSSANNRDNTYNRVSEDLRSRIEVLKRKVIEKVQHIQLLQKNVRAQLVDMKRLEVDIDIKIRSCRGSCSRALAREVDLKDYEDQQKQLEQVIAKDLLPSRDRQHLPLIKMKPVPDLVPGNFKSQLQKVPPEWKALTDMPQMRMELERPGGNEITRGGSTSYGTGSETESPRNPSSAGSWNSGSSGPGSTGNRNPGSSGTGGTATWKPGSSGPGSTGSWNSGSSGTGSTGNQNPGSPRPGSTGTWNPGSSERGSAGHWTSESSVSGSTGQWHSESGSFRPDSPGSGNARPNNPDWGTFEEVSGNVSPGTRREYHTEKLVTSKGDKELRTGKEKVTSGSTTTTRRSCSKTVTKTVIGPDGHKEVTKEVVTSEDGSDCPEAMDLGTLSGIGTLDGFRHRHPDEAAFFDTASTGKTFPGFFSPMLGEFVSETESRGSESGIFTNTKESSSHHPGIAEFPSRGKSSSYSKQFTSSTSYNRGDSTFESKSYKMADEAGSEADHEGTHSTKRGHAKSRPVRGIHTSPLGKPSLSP
T1 sequence (P02675 45-491 limits assumed): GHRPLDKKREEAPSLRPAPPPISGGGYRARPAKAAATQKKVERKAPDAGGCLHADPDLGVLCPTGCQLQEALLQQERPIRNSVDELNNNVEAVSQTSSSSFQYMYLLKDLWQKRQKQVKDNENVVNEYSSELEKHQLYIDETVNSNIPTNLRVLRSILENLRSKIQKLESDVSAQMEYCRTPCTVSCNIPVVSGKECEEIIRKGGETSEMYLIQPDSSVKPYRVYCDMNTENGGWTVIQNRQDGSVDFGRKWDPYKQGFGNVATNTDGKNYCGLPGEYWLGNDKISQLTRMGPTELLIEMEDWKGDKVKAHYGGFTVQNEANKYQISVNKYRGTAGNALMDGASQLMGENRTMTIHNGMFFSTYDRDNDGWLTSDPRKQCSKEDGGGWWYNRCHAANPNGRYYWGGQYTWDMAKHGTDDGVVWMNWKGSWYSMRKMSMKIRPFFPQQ
T1 sequence (P02679 27-437 isoform P02679-2 limits assumed): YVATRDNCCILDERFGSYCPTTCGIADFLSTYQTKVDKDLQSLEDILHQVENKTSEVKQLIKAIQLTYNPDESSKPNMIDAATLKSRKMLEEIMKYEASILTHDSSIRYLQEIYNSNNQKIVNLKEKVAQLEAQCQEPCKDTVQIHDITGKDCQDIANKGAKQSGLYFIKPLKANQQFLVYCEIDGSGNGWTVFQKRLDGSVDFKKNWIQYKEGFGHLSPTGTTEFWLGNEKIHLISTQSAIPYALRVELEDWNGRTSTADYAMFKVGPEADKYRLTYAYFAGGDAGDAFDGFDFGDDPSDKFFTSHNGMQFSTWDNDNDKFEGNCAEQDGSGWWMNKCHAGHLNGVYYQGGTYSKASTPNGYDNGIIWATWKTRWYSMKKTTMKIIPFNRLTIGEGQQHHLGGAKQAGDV
Experimental: Incorporation of radiolabelled substrates into fibrin was investigated by induction of an in vitro human plasma clot in the following manner. To a siliconised 5 ml glass vial was added, (a) 800 μl of Tris(hydroxymethyl)aminomethane buffered saline pH 7.5 containing calcium chloride (50 mM Tris, 150 mM sodium chloride, 4 mM calcium chloride.), (b) about 40 μl of physiological salt solution containing 100 units of thrombin per ml, (c) about 400 μl of human plasma containing the radiolabelled substrate at a concentration of typically 10 kBq/ml. To aid induction of clot a roughened glass rod was added to the reaction vial. Control vials were prepared similarly but with the omission of thrombin and calcium chloride.
After incubation of the test solution at ambient laboratory temperature (ca. 20° C.) for 60 minutes the reaction was discontinued with the addition of about 400 μl of a cold solution of 33.5 mM ethylenediaminetetra-acetic acid disodium salt. Clots were separated from serum by vacuum filtration onto […] nitrocellulose filters (pre-soaked in 1.5% BSA/tris(hydroxymethyl)aminoethae buffered saline pH 7.5 containing 0.1% Tween 20) and washed with about 2×10 ml of tris(hydroxymethyl)aminomethane buffered saline pH 7.5 containing Tween 20 to a final concentration of 0.1% v/v. The proportion of total radioactivity was calculated by counting in suitable detection apparatus.
The fraction of radioactivity retained on the filter, after subtraction of the non-specific binding determined from the control, is a measure of incorporation into the filtered clots.

[2] = Incorporation into clots induced in a rat model (rat inferior vena cava model); format: in vivo, rat (Male Wistar); conditions: for % id/g (clot) / Rel. Conc. (cpm/g of clot by dose/g animal): sacrificed after 60 min
Experimental: The rats (Male Wistar, 250–350 g) were anaesthetised with 15% urethane. After laparotomy, the vena cava was isolated and freed of surrounding fat tissue. […] The compounds were injected 5 min (fresh clot) and 60 min (aged clot) post-induction. After 60 min the animals were sacrificed and the clot removed, weighed and counted. Other tissues e.g. blood, lung, heart, were also dissected and counted. The uptake of tracer into the clot was determined as the relative concentration (cpm/g of clot by dose/g animal) and clot to background tissue.

[3] = Aged Clots: injected 60 min post-induction
[4] = Fresh Clots: injected 5 min post-induction

Substance	% specific uptake [1] [%]	% retained (no thrombin) [1] [%]	% retained (with thrombin) [1] [%]	in vitro clot uptake (in words) ([1]; in vitro clot)	Clot/blood ([2]; Aged Clots)	Clot/heart ([2]; Aged Clots)	Clot/liver ([2]; Aged Clots)	Clot/lung ([2]; Aged Clots)	% id/g (clot) [2, 3] [% id/g]	Rel. Conc. (cpm/g of clot by dose/g animal) [2, 3]	Clot/blood ([2]; Fresh Clots)	Clot/heart ([2]; Fresh Clots)	Clot/liver ([2]; Fresh Clots)	Clot/lung ([2]; Fresh Clots)	% id/g (clot) [2, 4] [% id/g]	Rel. Conc. (cpm/g of clot by dose/g animal) [2, 4]
Ac-NQEQ(D-V)(D-S)P(D-Y)TLL(D-K)G-Pn216 [^99mTc-Cmpd 31]	7.6	0.1	7.7	significant reduction in uptake	0.6	9	2	4	0.2 ± 0.1	0.6 ± 0.2	0.6	2	3	1	0.3 ± 0.2	0.9 ± 0.6
Ac-NQEQVSP(I-Y)TLLKG-Pn216 [^99mTc-Cmpd 22]	58.7	0.3	59.0		11	3	4	1	6.9 ± 2.5	22.7 ± 7.4	11	28	25	13	3.8 ± 1.6	13.0 ± 5.5
Ac-NQEQVSPLTLLKG-Pn216 (also: 99mTc complex) [^99mTc-Cmpd 19]	48.0	0.2	48.2		14	13	6	5	3.2 ± 2.3	9.1 ± 7.1	3	29	17	7	2.5 ± 0.3	7.1 ± 1.2
Ac-NQEQVSPYTLL(D-K)G-Pn216 [^99mTc-Cmpd 28]	41.9	0.2	42.1		17	3	1	2	4.5 ± 1.1	13.1 ± 3.4	13	31	35	19	3.5 ± 2.0	9.7 ± 5.0

Now from value to substance, other results behind:

% specific uptake [1] [%]	% retained (no thrombin) [1] [%]	% retained (with thrombin) [1] [%]	in vitro clot uptake (in words) ([1]; in vitro clot)	Substance	Clot/blood ([2]; Aged Clots)	Clot/heart ([2]; Aged Clots)	Clot/liver ([2]; Aged Clots)	Clot/lung ([2]; Aged Clots)	% id/g (clot) [2, 3] [% id/g]	Rel. Conc. (cpm/g of clot by dose/g animal) [2, 3]	Clot/blood ([2]; Fresh Clots)	Clot/heart ([2]; Fresh Clots)	Clot/liver ([2]; Fresh Clots)	Clot/lung ([2]; Fresh Clots)	% id/g (clot) [2, 4] [% id/g]	Rel. Conc. (cpm/g of clot by dose/g animal) [2, 4]
21.0	0.1	21.1		Ac-NQEQVSP(D-Y)TLL(D-K)G-Pn216 [^99mTc-Cmpd 29]	11	67	29	30	3.8 ± 0.4	10.0 ± 1.7	14	44	44	20	4.7 ± 1.9	13.0 ± 4.9
63.8	0.1	63.9		Ac-NQEQVSP(D-Y)TLL(D-K)βAla-Pn216 [^99mTc-Cmpd 33]	16	24	16	9	2.2 ± 0.6	6.7 ± 1.6	11	32	28	16	2.7 ± 0.2	7.8 ± 0.6
63.7	0.1	63.8		Ac-NQEQVSP(I2-Y)TLLKG-Pn216 [^99mTc-Cmpd 23]	13	1	1	1	7.5 ± 2.5	17.6 ± 4.6	6	17	21	6	7.6 ± 1.8	18.2 ± 4.1
60.1	0.5	60.6		Ac-NQEQVSP(pBr-F)TLLKG-Pn216 [^99mTc-Cmpd 21]	31	32	31	13	2.7 ± 2.3	8.5 ± 6.8	11	28	13	16	2.3 ± 1.3	7.4 ± 4.0
62.4	2.6	65.0		Ac-NQEQVSP-Nal(2)-TLLKG-Pn216 [^99mTc-Cmpd 20]	10	36	23	14	1.7 ± 0.5	4.9 ± 1.4	12	30	18	11	2.3 ± 0.6	6.5 ± 1.3
37.4	7.1	44.5		Ac-NQEQVSPYTLLKG-(PEG)10k-Pn216 (Ac-NQEQVSPYTLLKG-{PEG 10k-Pn216}; also: 99mTc complex) [^99mTc-Cmpd 41]	1	13	4	6	0.4 ± 0.1	1.1 ± 0.3	3	6	8	4	0.7 ± 0.1	2.2 ± 0.3
